Tested on: Pseudomonas aeruginosa PAM1001
Experiment: checkerboard assay (broth microdilution): levofloxacin MIC in presence of efflux pump inhibitor
Assay type: cell-based
Description: For compounds labeled with the prefix ‘M’, potentiation effect is observed by the reduction of the minimum inhibitory concentration of levofloxacin in the presence of the experimental efflux pump inhibitor. The activity of efflux pump inhibitors (EPI) in combination with fluoroquinolones, such as levofloxacin, is assessed by the checkerboard assay (Antimicrobial Combinations. In Antibiotics in Laboratory Medicine, Ed. Victor Lorian, M.D., Fourth edition, 1996, pp 333-338) using broth microdilution method performed as recommended by the National Committee for Clinical Laboratory Standards (1997). Methods for Dilution of Antimicrobial Susceptibility Tests for Bacteria That Grow Aerobically—Fourth Edition; Approved Standard. NCCLS Document M7-A4, Vol 17 No.2). The test organism used is Pseudomonas aeruginosa PAM1001. […] The compounds tabulated below are representative of the described invention.
In these assays, multiple dilutions of two drugs, namely the EPI and levofloxacin, are being tested, alone and in combination, at concentrations equal to, above and below their respective minimal inhibitory concentrations (MICs). In the case of EPI, most of these compounds are devoid of intrinsic antimicrobial activity and are tested up to the maximum concentration of 40 μg/mL. The MIC of levofloxacin against P. aeruginosa PAM1001 is 4 μg/mL.
The EPI tested are readily soluble in water and stock solutions are prepared at a final concentration of 2 mg/mL. Stock solutions are further diluted, according to the needs of a particular assay, in Mueller Hinton Broth (MHB). Stock solution can be stored at −80° C. Quinolones are solubilized according to the instructions of the manufacturers, at a concentration of 1 mg/mL. They are then further diluted in MHB. Stock solution can be stored at −80° C.
The checkerboard assay is performed in microtiter plates. Levofloxacin is diluted in the x axis, each column containing a single concentration of levofloxacin. The EPI is diluted in the y axis, each row containing an equal concentration of EPI. The result of these manipulations is that each well of the microtiter plate contains a unique combination of concentrations of the two agents. Each EPI are tested independently.
The assay is performed in MHB with a final bacterial inoculum of 5×10^5 CFU/mL (from an early-log phase culture). Microtiter plates are incubated during 20 h at 35° C. and are read using a microtiter plate reader (Molecular Devices) at 650 nm as well as visual observation using a microtiterplate reading mirror.

| Compound | Levofloxacin MIC Against P. aerugiuosa PAM1001 in Presence of Efflux Pump Inhibitor (EPI), Minimum Inhibitory Concentration (EPI Conc. 0 μg/mL) [µg/mL] | Levofloxacin MIC Against P. aerugiuosa PAM1001 in Presence of Efflux Pump Inhibitor (EPI), Minimum Inhibitory Concentration (EPI Conc. 0.625 μg/mL) [µg/mL] | Levofloxacin MIC Against P. aerugiuosa PAM1001 in Presence of Efflux Pump Inhibitor (EPI), Minimum Inhibitory Concentration (EPI Conc. 1.25 μg/mL) [µg/mL] | Levofloxacin MIC Against P. aerugiuosa PAM1001 in Presence of Efflux Pump Inhibitor (EPI), Minimum Inhibitory Concentration (EPI Conc. 2.5 μg/mL) [µg/mL] | Levofloxacin MIC Against P. aerugiuosa PAM1001 in Presence of Efflux Pump Inhibitor (EPI), Minimum Inhibitory Concentration (EPI Conc. 5 μg/ mL) [µg/mL] | Levofloxacin MIC Against P. aerugiuosa PAM1001 in Presence of Efflux Pump Inhibitor (EPI), Minimum Inhibitory Concentration (EPI Conc. 10 μg/mL) [µg/mL] | Levofloxacin MIC Against P. aerugiuosa PAM1001 in Presence of Efflux Pump Inhibitor (EPI), Minimum Inhibitory Concentration (EPI Conc. 20 μg/mL) [µg/mL] | Levofloxacin MIC Against P. aerugiuosa PAM1001 in Presence of Efflux Pump Inhibitor (EPI), Minimum Inhibitory Concentration (EPI Conc. 40 μg/mL) [µg/mL] |
| --- | --- | --- | --- | --- | --- | --- | --- | --- |
| NC[C@@H]1CN[C@@H](C(=O)N[C@H](CCc2ccccc2)CNC(=O)c2cnc3ccccc3c2)C1 [Compound M103, (2R,4R)-4-(Aminomethyl)-N-[(1R)-3-phenyl-1-[(3-quinolylcarboxamido)methyl]propyl]-2-pyrrolidinecarboxamide] | 4 | 4 | 4 | 4 | 2 | 1 | 0.03 | 0.015 |
| NC[C@@H]1CN[C@@H](C(=O)N[C@H](Cc2ccc(F)cc2)C(=O)Nc2cnc3ccccc3c2)C1 [Compound M31, (2R,4R)-4-(Aminomethyl)-N-[(1R)-2-(4-fluoropheyl)-1-(3-quinolylcarbamoyl)ethyl]-2-pyrrolidinecarboxamide] | 4 | 4 | 4 | 4 | 1 | 0.25 | 0.03 | 0.03 |
| (2S,4R)-4-(2-Aminoacetamideo)-N-(2-phenylethyl)-N-(3-quinolylcarbamoyl)ethyl]-2-pyrrolidinecarboxamide [Compound M43] | 4 | 4 | 4 | 2 | 0.25 | 0.125 | 0.125 | 0.06 |
| (2R,4R)-4-(Aminomethyl)-N-(2-phenylethyl)-N-(3-quinolylcarbamoyl)ethyl]-2-pyrrolidinecarboxamide [Compound M45] | 4 | 4 | 4 | 1 | 0.50 | 0.03 | 0.015 | 0.015 |
| NCC(=O)N[C@H]1CN[C@H](C(=O)N[C@H](Cc2ccc(F)cc2)C(=O)Nc2cnc3ccccc3c2)C1 [Compound M21, (2S,4R)-4-(2-Aminoacetamido)-N-[(1R)-2-(4-fluorophenyl)-1-(3-quinolylcarbamoyl)ethyl]-2-pyrrolidnecarboxamide] | 4 | 4 | 4 | 2 | 2 | 0.25 | 0.06 | 0.015 |
| NC[C@@H]1CN[C@@H](C(=O)N[C@H](CCc2ccccc2)C(=O)Nc2cccc3cccnc23)C1 [Compound M30, (2R,4R)-4-(Aminomethyl)-N-[(1R)-3-pheyl-1-(8-quinolylcarbamoyl)propyl]-2-pyrrolidinecarboxamide] | 4 | 4 | 4 | 4 | 4 | 2 | 0.03 | 0.015 |
| Cc1ccc2ncc(C(=O)N[C@@H](CCc3ccccc3)CNC(=O)[C@H]3C[C@H](CN)CN3)cc2c1 [Compound M62, (2R,4R)-4-(Aminomethyl)-N-[(2S)-2-(6-methyl-3-quinolylcarboxamido)-4-phenylbutyl]-2-pyrrolidinecaroxamide] | 4 | 4 | 4 | 4 | 4 | 2 | 0.5 | 0.015 |
| CC(C)(C)c1ccc2ncc(NC(=O)[C@H]3C[C@H](CN)CN3)cc2c1 [Compound M97, (2R,4R)-4-(Aminomethyl)-N-[6-(1,1-dimethyl)ethyl-3-quiolyl]-2-pyrrolidinecarboxamide] | 4 | 4 | 4 | 2 | 0.5 | 0.125 | 0.015 | 0.008 |

Source: patent US6399629B1, “Efflux pump inhibitors” (priority 1998, dated 2002)
